The test system of data set [1] is U87MG human glioblastoma cells. The data set can be described thus: inhibition of U87MG human glioblastoma cell growth (3H-thymidine incorporation). The class given is cell-based. Particulars: U-87 MG, 48 hours incubation. As for the experimental part: The antitumor activity of the compounds of this invention were confirmed in a standard pharmacological test procedure which measures the inhibition of U87MG human glioblastoma cell growth (as a function of ^3H-thymidine incorporation), using CCl-779-PEG 5000 ester (Compound III) and CCl-779-(PEG 5000)2 ester (Compound IV) as representative compounds of this invention. The following briefly describes the procedure used and results obtained. U87MG human glioblastoma cells (ATCC #HTB-14; available from the American Type Culture Collection; 10801 University Boulevard; Manassas, Va. 20110;), were grown in the following media.
Growth Medium: BRL Minimum Essential Medium with Earle Salts (500 mL)
+5 mL BRL MEM Non-Essential Amino Acids (10 mM)
+5 mL BRL Na Pyruvate Solution (100 mM)
+5 mL BRL L-Glutamine 200 mM
+50 mL BRL Fetal Bovine Serum (Qualified)
1. Cells were trypsinized and plated at a concentration of 10^4 cells/well in a final volume of 200 μL growth medium in 96-well flat bottom plates and allowed to adhere for 24 hours at 37° C.
2. The media was removed by aspiration with care to not disturb the cell monolayer. 200 μL of fresh growth media was added per well, allowing enough wells for samples to be run in triplicate. Test compounds were added in 10 μL phosphate buffer solution (PBS) and incubated for another 48 hours at 37° C.
3. […]
4. […] Mats were counted in a Wallac Betaplate counter.

The nature of a further data set: water solubility. The class given is physicochemical. An excerpt: Such doses may be administered in any manner useful in directing the active compounds herein to the recipient's bloodstream, including orally, via implants, parenterally (including intravenous, intraperitoneal and subcutaneous injections), rectally, intranasally, vaginally, and transdermally. […] This advantage is particularly important for oral and parenteral administration.

This is an account of results in patent publication US6432973B1, “Water soluble rapamycin esters” (Wyeth, priority 2000, dated 2002).

The structures appear in SMILES notation. ≈ marks a conversion by molar mass, not a printed value. Where only a bound is given, the exact number is not on record here.

Consider `CO[C@H]1C[C@@H]2CC[C@@H](C)[C@@](O)(O2)C(=O)C(=O)N2CCCC[C@H]2C(=O)O[C@H]([C@H](C)C[C@@H]2CC[C@@H](OC(=O)C(C)(CO)CO)[C@H](OC)C2)CC(=O)[C@H](C)/C=C(\C)[C@@H](O)[C@@H](OC)C(=O)[C@H](C)C[C@H](C)/C=C/C=C/C=C/1C` [CCI-779, rapamycin 42-ester with 3-hydroxy-2-(hydroxymethyl)-2-methylpropionic acid], for which the IC50 in data set [1] is 0.6 ng/mL (≈ 0.582 nM). The solubility in “water solubility” is < 1.1 µg/mL.

Usually IC50 stands for the point on the concentration scale where inhibition reaches its midpoint. Lower therefore signals higher potency. Usually solubility stands for the concentration that dissolves in the medium under given conditions.
